The data set can be described thus: Organic impurities of TDF granules by HPLC (USP Pending Monograph procedure 1), before and after twin screw granulation. In kind it is physicochemical. The conditions noted are these: initial, no storage. How it is done:
The test of organic impurities of Tenofovir Disoproxil Fumarate granules carried out by HPLC (Make-Agilent 1260 Infinity series).
The Tenofovir Disoproxil Fumarate granules sample was analyzed for organic impurities as per method based on Organic impurities, procedure 1 of USP Pending Monographs of Tenofovir Disoproxil Fumarate v.1 Authorized Sep. 1, 2011.
The standard, Tenofovir Disoproxil Fumarate (TDF) was prepared in solution A. concentration 0.502 μg/mL in solution. The sample i.e., TDF granules of the present invention was prepared in solution A, concentration 520.05 μg/mL.
The standard and sample solution was injected in chromatographic system and following impurity results are reported.
The test of organic impurities of Tenofovir Disoproxil Fumarate granules carried out by HPLC (Agilent 1260 Infinity series).
The Tenofovir Disoproxil Fumarate granules sample were analyzed for organic impurities as per Organic impurities, procedure 1 of USP Pending Monographs of Tenofovir Disoproxil Fumarate v.1 Authorized Sep. 1, 2011.
The standard [Tenofovir Disoproxil Fumarate (TDF)] was prepared in solution A. concentration 0.502 μg/mL in solution.
The sample [TDF granules of the present invention] was prepared in solution A, concentration 520.05 μg/mL.

As to `CC(C)OC(=O)OCOP(=O)(CO[C@H](C)Cn1cnc2c(N)ncnc21)OCOC(=O)OC(C)C.O=C(O)/C=C/C(=O)O` [Unprocessed TDF API, 9-[(R)-2-[[bis[[(isopropoxycarbonyl)oxy]-methoxy]phosphinyl]methoxy]propyl]adenine fumarate (1:1)], the “(R)-9-(2-Phosphonomethoxypropyl)adenine impurity” value is on record as “BDL”, the Adenine impurity result is given as “Not detected”, the “Any individual unspecified impurity” value stood at 0.02% and the “Tenofovir disoproxil carbamate impurity” value is given as “Not detected”. Besides, the “Tenofovir disoproxil dimer impurity” value is listed as 0.04%, the “Tenofovir disoproxil ethyl ester impurity” value was determined as 0.03%, the “Tenofovir isopropyl isoproxil impurity” value is 0.17% and the “Tenofovir isoproxil monoester impurity” value turned out to be 0.48%. In addition, the Total impurities is listed as 0.84%. Under “listed as Unprocessed (API)”, the Adenine impurity entry is listed as “BDL”, the “Any individual unspecified impurity” value was 0.015%, the “Tenofovir isopropyl isoproxil impurity” value is 0.118% and the “Tenofovir isoproxil monoester impurity” value is listed as 0.321%. The same compound returned a Total impurities (listed as Unprocessed (API)) of 0.490%.

Values taken from patent US10561614B2, “Tenofovir granules” (STEERLIFE INDIA PRIVATE LIMITED, priority 2017, dated 2020).
